According to US5314886A, “N-substituted lactams useful as cholecystokinin antagonists” (priority 1992, dated 1994):
Structures can show the parent of a compound that is named as a salt.

Legend:
CCK-A = target: T1, CCK-A (Rattus norvegicus, UniProt P30551); experiment: Displacement of 125I-CCK-OP binding to rat pancreatic membranes (CCK-A binding); conditions: for IC50: 125I-CCK-OP; for inhibition at 1 µM: read-out: CCK-A binding rat pancreatic membranes: percent displacement of 125I-CCK-OP
T1 sequence (P30551 1-444): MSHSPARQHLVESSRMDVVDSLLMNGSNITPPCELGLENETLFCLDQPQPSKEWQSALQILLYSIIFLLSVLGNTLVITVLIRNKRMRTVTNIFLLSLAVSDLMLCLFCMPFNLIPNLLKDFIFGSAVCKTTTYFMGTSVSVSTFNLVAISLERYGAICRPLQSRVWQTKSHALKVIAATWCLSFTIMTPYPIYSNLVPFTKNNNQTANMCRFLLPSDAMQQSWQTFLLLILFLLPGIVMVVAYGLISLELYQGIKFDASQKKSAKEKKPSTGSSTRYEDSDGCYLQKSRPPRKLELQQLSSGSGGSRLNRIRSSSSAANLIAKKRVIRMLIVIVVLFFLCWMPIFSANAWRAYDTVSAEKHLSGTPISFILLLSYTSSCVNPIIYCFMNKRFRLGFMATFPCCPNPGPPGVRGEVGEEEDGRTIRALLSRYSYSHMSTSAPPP

CCK-B = target: T2, CCK-B (Cavia porcellus, UniProt H0VZC5); experiment: Displacement of 125I-CCK-OP binding to guinea pig brain homogenates (CCK-B binding); conditions: guinea pig brain membranes; for IC50: 125I-CCK-OP, read-out: CCK-B binding GP brain membranes: IC50; for inhibition at 10 µM: read-out: CCK-B binding GP brain membranes: percent displacement of 125I-CCK-OP
T2 construct: Rat pancreas or guinea pig brain was homogenized; from tissue; host or cells: guinea pig brain homogenate (membrane pellet)
T2 sequence (H0VZC5 1-426): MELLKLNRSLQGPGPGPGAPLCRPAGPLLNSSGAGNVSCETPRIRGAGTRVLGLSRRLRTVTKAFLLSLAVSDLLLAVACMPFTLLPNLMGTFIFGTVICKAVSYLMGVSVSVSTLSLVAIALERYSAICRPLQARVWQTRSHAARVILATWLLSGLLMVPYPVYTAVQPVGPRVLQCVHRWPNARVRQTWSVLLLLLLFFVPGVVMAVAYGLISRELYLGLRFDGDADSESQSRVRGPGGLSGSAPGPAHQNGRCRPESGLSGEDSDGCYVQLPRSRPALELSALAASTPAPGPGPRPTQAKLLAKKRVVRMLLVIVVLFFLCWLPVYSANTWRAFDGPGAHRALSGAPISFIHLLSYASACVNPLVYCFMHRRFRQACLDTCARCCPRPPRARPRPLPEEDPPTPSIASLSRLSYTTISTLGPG
Description: Percent displacement of ^125 I-CCK-OP binding to rat pancreatic membrane and guinea pig brain homogenates by compounds of the instant invention at different concentrations was used to quantify CCK-A and CCK-B receptor binding, respectively.
Binding of 125-CCK-OP to rat pancreas (CCK-A) and guinea pig brain (CCK-B) homogenates.
Rat pancreas or guinea pig brain was homogenized in 50 and 20 volumes, respectively, of 50 mM Tris-HCl buffer (pH 7.8 at 25° C.) with a Brinkmann polytron homogenizer. The homogenates were centrifuged twice at 50,000 x g for 20 min with an intermediate rehomogenization in fresh buffer. The final pellets were resuspended in 20 volumes (brain) or 40 volumes (pancreas) of incubation buffer [50 mM Tris-HCl, 5 mM MgCl2, 0.2% BSA, 5 mM dithiothreitol, 0.14 mg/ml bacitracin, pH 7.9 at 25° C.]. One milliliter of the final homogenate from brain or pancreas was diluted to 50 mL with incubation buffer to use in the binding assay.
Binding experiments were performed in a final volume of 1 mL in 13×100 mm borosilicate disposable culture tubes. To duplicate tubes were added 890 μL of freshly resuspended pancreas or brain homogenate; 73,000 dpm of […] (final concentration, 12 pM) and 10 μL of DMSO containing displacing agents (compounds or reference compounds, at the desired final concentrations). Nonspecific (nonsaturable) binding was determined in the presence of 1 μM unlabeled CCK-OP. After incubation for 30 min at 37° C. the binding was stopped by rapid filtration under a reduced pressure through glass fiber FPD-105 Whatman GF/B filters on Harvester and washed twice with 5 mL of ice-cold Tris buffer (50 mM Tris-HCl, pH 7.8). The radioactivity on the filters was counted in a gama counter. […] Specific binding was defined as the excess binding over that in blanks containing 1 μM unlabeled CCK-OP.
Determination of IC50 for displacing agents

CCK receptors = experiment: Rat gastric emptying: reversal of CCK-delayed gastric emptying; format: in vivo; conditions: IP, CCK 100 μg/Kg i.p.
Description: Rat Gastric Emptying Protocol
A test meal for measuring gastric emptying in rats was prepared. Ten grams of methylcellulose (2% solution=15 centipoises; Aldrich Chemical Company, Milwaukee, Wisc. was added to 200ml of cold water and mixed at 20,000 rpm in a Waring blender to insure dispersion and hydration of the methylcellulose. In addition, two beef bouillon cubes (Wyler's, Columbus, Ohio) dissolved in 100 ml of warm water was added to the mixture, followed by 16 g of casein (Hammersten, Schwartz/Mann, Orangeburg, N.Y.), 8 g of powdered confectioners sugar and 8 g of cornstarch. The ingredients were mixed for two minutes at 20,000 rpm and the resultant test meal was refrigerated for 48 hours to allow trapped air to escape. Male Charles River Rats, Crl: COBS, CD (SD) BR Strain, 180-200 g body weight, were used in groups of six animals. The animals were food deprived for 24 hours prior to the experiment with access to water ad libitum. The compounds to be evaluated were prepared in a 0.5% aqueous methylcellulose solution. If insoluble, the mixture was homogenized for two minutes at 5500 rpm using a Try-R-Stir-R. The compounds were given intraperitoneally or intragastrically at a volume of 5 ml/kg, 60 minutes or 90 min, respectively, before the test meal. Control animals received only the vehicle. Cholecystokinin (100 μg/Kg, i.p.) was given 30 minutes before the test meal to delay gastric emptying by an effect elicited through CCK receptors. Sixty minutes after the test meal (2.0 ml/rat, i.g.), the rats were sacrificed by CO2 asphyxiation. The stomachs were removed intact and weighed. The stomachs were kept opened, gently rinsed with tap water, blotted dry with paper toweling, and the empty stomach weighed. The difference between the weight of the full and empty stomach is indicative of the amount of meal remaining in the stomach. The amount of meal remaining in the stomach was subtracted from the weight of 3 ml of the test meal to determine the amount of food emptied from the stomach during the test. Weight of the test meal was determined by weighing three samples (3 ml) at the beginning and three samples at the end of each experiment and calculating the mean. The mean and standard error of the amount of meal emptied were calculated for at least 5 doses of compound, and expressed as percent change from control.

Structure (SMILES) | IC50 (CCK-A) [nM] | IC50 (CCK-B) [nM] | inhibition at 10 µM (CCK-B) [%] | inhibition at 1 µM (CCK-A) [%] | CCK-delayed gastric emptying: ED50 (CCK receptors) [mpk]
CCCCCN1C[C@@H](C(=O)O)[C@@H](NC(=O)Nc2ccc(Cl)c(Cl)c2)C1=O (relative stereo) [Example 34, cis-4-[[[(3,4-dichlorophenyl)amino]carbonyl]amino]-5-oxo-1-pentyl-3-pyrrolidinecarboxylic acid] | 350 | 6000 | – | – | –
CCCCCN1C[C@@H](C(=O)O)[C@@H](NC(=O)Nc2ccc3ccccc3c2)C1=O (relative stereo) [Example 40, cis-4-[[(2-Naphthalenylamino)carbonyl]amino]-5-oxo-1-pentyl-3-pyrrolidinecarboxylic acid] | 2800 | 10000 | – | – | –
CCCCCN1C[C@@H](C(=O)O)[C@H](NC(=O)Nc2ccc(Cl)cc2)C1=O (relative stereo) [47 trans] | > 1000 | – | – | – | –
CCCCCN1C[C@@H](C(=O)O)[C@@H](NC(=O)c2ccc(Cl)c(Cl)c2)C1=O (relative stereo) [Example 32, cis-4-[[(3,4-Dichlorophenyl)carbonyl]amino]-5-oxo-1-pentyl-3-pyrrolidinecarboxylic acid] | 300 | – | 49 | – | –
CCCCCN1C[C@@H](C(=O)O)[C@@H](NC(=O)c2cnc3ccccc3c2)C1=O (relative stereo) [Example 27, cis-5-oxo-1-pentyl-4-[(3-quinolinylcarbonyl)amino]-3-pyrrolidinecarboxylic acid, monohydrochloride] | 250 | > 10000 | – | – | –
CCCCCN1C[C@@H](C(=O)O)[C@H](NC(=O)c2ccc3ccccc3c2)C1=O (relative stereo) [Example 39, trans-4-[(2-Naphthalenylcarbonyl)amino]-5-oxo-1-pentyl-3-pyrrolidinecarboxylic acid] | > 10000 | – | – | – | –
O=C(N[C@@H]1C(=O)N(c2ccccc2)C[C@H]1C(=O)N1CCCC1)c1ccc2ccccc2c1 (relative stereo) [Example 55, trans-1-[[3-[(2-Naphthalenylcarbonyl)amino]-2-oxo-1-phenyl-4-pyrrolidinyl]carbonyl]pyrrolidine] | – | 10000 | – | 27 | –
O=C(N[C@@H]1C(=O)N(c2ccccc2)C[C@H]1C(=O)O)c1ccc(Cl)cc1 (relative stereo) [Example 46 (trans), trans-4-[[(4-Chlorophenyl)carbonyl]amino]-5-oxo-1-phenyl-3-pyrrolidinecarboxylic acid] | 41000 | > 10000 | – | – | –
O=C(Nc1ccc(Cl)c(Cl)c1)N[C@@H]1C(=O)N(c2ccccc2)C[C@H]1C(=O)O (relative stereo) [Example 36 (trans)] | > 1000 | – | 45 | – | –
CC(C)(C)OC(=O)[C@@H]1CN(c2ccccc2)C(=O)[C@@H]1NC(=O)c1ccc2ccccc2c1 (relative stereo) [1,1-Dimethylethyl cis-4-[(2-naphthalenylcarbonyl)amino]-5-oxo-1-phenyl-3-pyrrolidinecarboxylate] | – | – | 35 | 32 | –
O=C(N[C@@H]1C(=O)N(c2ccccc2)C[C@H]1C(=O)O)c1ccc(Cl)c(Cl)c1 (relative stereo) [Example 35 (trans), trans-4-[[(3,4-dichlorophenyl)carbonyl]amino]-5-oxo-1-phenyl-3-pyrrolidinecarboxylic acid] | > 1000 | > 10000 | – | – | –
O=C(N[C@@H]1C(=O)N(c2ccccc2)C[C@H]1C(=O)O)c1ccc2ccccc2c1 (relative stereo) [41 trans] | – | – | 22 | – | 3.2
O=C(Cc1c[nH]c2ccccc12)N[C@@H]1C(=O)N(c2ccccc2)C[C@H]1C(=O)O (relative stereo) [Example 51, trans-4-[(3-indolylacetyl)amino]-5-oxo-1-phenyl-3-pyrrolidinecarboxylic acid] | > 1000 | > 10000 | – | – | –
O=C(N[C@@H]1C(=O)N(c2ccccc2)C[C@@H]1C(=O)N1CCCC1)c1ccc2ccccc2c1 (relative stereo) [Example 53, cis-1-[[3-[(2-Naphthalenylcarbonyl)amino]-2-oxo-1-phenyl-4-pyrrolidinyl]carbonyl]pyrrolidine] | 750 | – | 45 | – | –
O=C(N[C@@H]1C(=O)N(c2ccccc2)C[C@H]1C(=O)O)c1cc2ccccc2[nH]1 (relative stereo) [Example 30, trans-4-[(1H-Indol-2-ylcarbonyl)amino]-5-oxo-1-phenyl-3-pyrrolidinecarboxylic acid] | 320 | – | – | – | –
O=C(Nc1ccc(Cl)c(Cl)c1)N[C@H]1C(=O)N(c2ccccc2)C[C@H]1C(=O)O (relative stereo) [Example 36 (cis), cis-4-[[[(3,4-dichlorophenyl)amino]carbonyl]amino]-5-oxo-1-phenyl-3-pyrrolidinecarboxylic acid] | 100 | 10000 | – | – | –
CCCCCN1C[C@@H](C(=O)O)[C@@H](NC(=O)c2ccc(Cl)cc2)C1=O (relative stereo) [Example 45] | > 1000 | > 10000 | – | – | –
O=C(N[C@@H]1C(=O)N(c2ccccc2F)C[C@@H]1C(=O)O)c1cnc2ccccc2c1 (relative stereo) [Example 28, cis-1-(2-fluorophenyl)-5-oxo-4-[(3-quinolinylcarbonyl)amino]5-oxo-3-pyrrolidinecarboxylic acid] | – | > 10000 | – | – | –
O=C(N[C@H]1C(=O)N(c2ccccc2)C[C@H]1C(=O)O)c1ccc(Cl)cc1 (relative stereo) [Example 46 (cis), cis-4-[[(4-Chlorophenyl)carbonyl]amino]-5-oxo-1-phenyl-3-pyrrolidinecarboxylic acid] | 1600 | > 10000 | – | – | –
CCCCCN1C[C@H](C(=O)O)[C@H](NC(=O)Nc2ccc(Cl)cc2)C1=O (relative stereo) [47 cis] | > 1000 | – | – | – | –
